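Protocol summary: plate cells (96-well), add compound at 5 concentrations, incubate 48 h, interpolate endpoints linearly. At the TGI there is no net growth.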
Experiments:
Test in all cases: NCI anticancer screen, dose series, 48 h
[1] = tested on: KM12 colon
[2] = tested on: CAKI-1 renal
[3] = tested on: A549 NSCLC
[4] = tested on: RXF 393 renal
[5] = tested on: HL-60(TB) leukemia
[6] = tested on: HS 578T breast
[7] = tested on: OVCAR-4 ovarian
[8] = tested on: MCF7 breast
[9] = tested on: SNB-75 CNS
[10] = tested on: NCI-H226 lung
[11] = tested on: K-562 leukemia
[12] = tested on: MDA-N
[13] = tested on: A498 renal
[14] = tested on: SF-295 CNS
[15] = tested on: SNB-19 CNS
[16] = tested on: NCI-H460 lung
[17] = tested on: OVCAR-8 ovarian
[18] = tested on: IGROV1 ovarian
[19] = tested on: HCC-2998 colon
[20] = tested on: NCI/ADR-RES ovarian
[21] = tested on: SR leukemia
[22] = tested on: NCI-H23 lung
[23] = tested on: SW-620 colon
[24] = tested on: HCT-116 colon
[25] = tested on: SF-268 CNS
[26] = tested on: SK-OV-3 ovarian
[27] = tested on: EKVX NSCLC
[28] = tested on: NCI-H522 lung
[29] = tested on: HOP-62 NSCLC
[30] = tested on: DU-145 prostate
[31] = tested on: SK-MEL-2 melanoma
[32] = tested on: ACHN renal
[33] = tested on: SN12C renal
[34] = tested on: RPMI-8226 leukemia
[35] = tested on: BT-549 breast
[36] = tested on: COLO 205 colon
[37] = tested on: PC-3 prostate
[38] = tested on: CCRF-CEM leukemia
[39] = tested on: UACC-62 melanoma
[40] = tested on: MDA-MB-231 breast
[41] = tested on: UO-31 renal
[42] = tested on: U251 CNS
[43] = tested on: SK-MEL-28 melanoma
[44] = tested on: T-47D breast
[45] = tested on: TK-10 renal
[46] = tested on: 786-0 renal
[47] = tested on: SF-539 CNS
[48] = tested on: MDA-MB-435
[49] = tested on: M14 melanoma
[50] = tested on: HT29 colon
[51] = tested on: SK-MEL-5 melanoma
[52] = tested on: OVCAR-3 ovarian
[53] = tested on: HOP-92 NSCLC
[54] = tested on: LOX IMVI melanoma
[55] = tested on: UACC-257 melanoma
[56] = tested on: MALME-3M melanoma
[57] = tested on: HCT-15 colon
[58] = tested on: OVCAR-5 ovarian
[59] = tested on: MOLT-4 leukemia

Q: Which results are given for `C=C1C(=O)O[C@H]2[C@H]3O[C@@H](C[C@@H]12)[C@@]1(C)CC[C@H](O1)C(C)=CCC[C@H]3C`?
A: TGI [1]: 3.76 µM; TGI [2]: 2.56 µM; TGI [3]: 6.96 µM; TGI [4]: 3.75 µM; TGI [5]: 1.03 µM; TGI [6]: 8.95 µM; TGI [7]: 3.27 µM; TGI [8]: 3.63 µM; TGI [9]: 5.65 µM; TGI [10]: 7.02 µM; TGI [11]: 3.09 µM; TGI [12]: 3 µM; TGI [13]: 3.15 µM; TGI [14]: 17.9 µM; TGI [15]: 19 µM; TGI [16]: 7.26 µM; TGI [17]: 3.1 µM; TGI [18]: 3.83 µM; TGI [19]: 3.25 µM; TGI [20]: 3.33 µM; TGI [21]: 0.28 µM; TGI [22]: 2.96 µM; TGI [23]: 7.41 µM; TGI [24]: 4.29 µM; TGI [25]: 2.95 µM; TGI [26]: 16.2 µM; TGI [27]: 3.32 µM; TGI [28]: 3.42 µM; TGI [29]: 19.1 µM; TGI [30]: 2.86 µM; TGI [31]: 4.11 µM; TGI [32]: 2.88 µM; TGI [33]: 4.05 µM; TGI [34]: 2.46 µM; TGI [35]: 2.07 µM; TGI [36]: 3.47 µM; TGI [37]: 2.97 µM; TGI [38]: 1.98 µM; TGI [39]: 4.05 µM; TGI [40]: 3.14 µM; TGI [41]: 2.77 µM; TGI [42]: 2.97 µM; TGI [43]: 3.36 µM; TGI [44]: 6.3 µM; TGI [45]: 2.93 µM; TGI [46]: 2.67 µM; TGI [47]: 3.07 µM; TGI [48]: 2.92 µM; TGI [49]: 3.15 µM; TGI [50]: 3.33 µM; TGI [51]: 2.81 µM; TGI [52]: 2.7 µM; TGI [53]: 3.45 µM; TGI [54]: 2.89 µM; TGI [55]: 3.59 µM; TGI [56]: 3.15 µM; TGI [57]: 3.2 µM; TGI [58]: 11.5 µM

Q: Which results are given for `Cc1cc2nc(-c3c(F)cccc3F)n(Cc3c(F)cccc3F)c2cc1C`?
A: TGI [1]: 28.6 µM; TGI [2]: 37.7 µM; TGI [3]: 28.1 µM; TGI [4]: 61 µM; TGI [5]: 42.7 µM; TGI [6]: 46.7 µM; TGI [7]: 40.1 µM; TGI [8]: 57.1 µM; TGI [9]: 26.1 µM; TGI [10]: 35.1 µM; TGI [11]: 42.8 µM; TGI [12]: 38.4 µM; TGI [13]: 39.9 µM; TGI [14]: 27.9 µM; TGI [15]: 42.7 µM; TGI [16]: 49.7 µM; TGI [17]: 29.5 µM; TGI [18]: 28.4 µM; TGI [19]: 21.4 µM; TGI [20]: 44.9 µM; TGI [21]: 30.4 µM; TGI [22]: 39.9 µM; TGI [23]: 35 µM; TGI [24]: 24.4 µM; TGI [25]: 42.7 µM; TGI [26]: 42.2 µM; TGI [59]: 33.8 µM; TGI [27]: 22.7 µM; TGI [28]: 27.1 µM; TGI [29]: 28.7 µM; TGI [30]: 50.5 µM; TGI [31]: 29.6 µM; TGI [32]: 35.4 µM; TGI [33]: 33.5 µM; TGI [34]: 24 µM; TGI [35]: 27.9 µM; TGI [36]: 30.7 µM; TGI [37]: 40.6 µM; TGI [38]: 60.9 µM; TGI [40]: 31 µM; TGI [41]: 23.3 µM; TGI [42]: 24.1 µM; TGI [43]: 42.2 µM; TGI [44]: 47.2 µM; TGI [45]: 56.6 µM; TGI [46]: 31.8 µM; TGI [47]: 34.3 µM; TGI [48]: 32.8 µM; TGI [49]: 25.2 µM; TGI [50]: 34 µM; TGI [51]: 26.5 µM; TGI [52]: 31.8 µM; TGI [53]: 30 µM; TGI [54]: 27.4 µM; TGI [55]: 30 µM; TGI [56]: 44 µM; TGI [57]: 27.6 µM; TGI [58]: 31.7 µM

Reference: PubChem BioAssay (NCI)
